# Results published in patent publication US20200253868A1, “CELL AUTOPHAGY INHIBITOR AND PREPARATION METHOD THEREFOR AND APPLICATION THEREOF” (CHINA PHARMACEUTICAL UNIVERSITY, priority 2017, published 2020).
# Tests used:
# H460 cells = test: Western blot of Capsase3, BCL-2 and BCL-XL; type: cell-based, human
# Experimental: (§1) […] A549 and H460 cells which are cultured overnight in a 10% FBS medium are seeded in a 24-well plate at an appropriate density, after 24 hours, the cells are collected to detect the expression levels of […] proteins BCL-2, BCL-XL and […]3 by the Western blot experiment.
# A549 cells = test: Western blot of Capsase3, BCL-2 and BCL-XL; type: cell-based, human
# Experimental: as §1
# [1] = tested on: KRAS mutant HCT116 nude mice xenograft; test: Human colon cancer xenograft in nude mice, tumor inhibition rate; type: in vivo, BABL/c nude mice; conditions: injection via tail vein, once every other day, 14 days
# Experimental: (§2) HCT116 is diluted with serum-free McCoy's 5a medium to 1×10^7 cells/mL, and 100 μL of the cell suspension is inoculated subcutaneously in the left armpit of BABL/c nude mice and grown for 7 days to form a tumor-bearing mouse model. The tumor-bearing mice with good growth are inoculated and randomly divided into groups. The RA-V nano-micelle injection prepared in Embodiment 3 is administered through the tail vein and administered once every other day, and the animals used are sacrificed 14 days after the administration, and the tumors are removed and weighed, calculate tumor suppression rate and perform statistical processing. Tumor inhibition rate (%)=(average tumor weight in the control group-average tumor weight in the experimental group)/average tumor weight in the control group×100%.
# as §2, with “RA-XII(2)” for “The RA-V nano-micelle”, “injection” for “injection prepared in Embodiment 3”
# [2] = tested on: KRAS dependent H358 cells; test: Western blot of autophagy-related proteins LC3, Atg7 and Beclin1; type: cell-based, human; conditions: H358, 0, 50, 100, 200 nM, 24 hours
# Experimental: (§3) KRAS dependent H441 and H358 cells which are cultured overnight in a 10% FBS medium are seeded in a 24-well plate at an appropriate density, after 24 hours, RA-V (1) with a concentration of 0, 50, 100, and 200 nM is added to react for 24 hours, and then the cells are collected to detect the expression levels of autophagy-related proteins LC3, Atg7 and Beclin1 by the Western blot experiment.
# [3] = tested on: KRAS dependent H441 cells; test: as above; type: cell-based, human; conditions: H441, 0, 50, 100, 200 nM, 24 hours
# Experimental: as §3
# [4] = tested on: KRAS independent H460 model; test: Human lung cancer xenograft in nude mice, tumor inhibition rate; type: in vivo, BABL/c nude mice; conditions: 2.5 mg/kg, nano-micelle injection, tail vein, once every other day, 14 days
# Experimental: as §2, with “Human lung cancer cells KRAS dependent H441 and KRAS independent H460 are” for “HCT116 is”, “physiological saline” for “serum-free McCoy's 5a medium”, “form” for “form a”
# [5] = tested on: KRAS dependent H441 model; test: as above; type: in vivo, BABL/c nude mice; conditions: 2.5 mg/kg, nano-micelle injection, tail vein, once every other day, 14 days
# Experimental: as §2, with “Human lung cancer cells KRAS dependent H441 and KRAS independent H460 are” for “HCT116 is”, “physiological saline” for “serum-free McCoy's 5a medium”, “form” for “form a”
# [6] = tested on: KRAS dependent H358 cells; test: MTT assay of cell viability; type: cell-based, human; conditions: H358, 0, 50, 100, 200 nM, 24 hours
# Experimental: (§4) MTT assay is used to determine the cell viability. KRAS independent A549 and H460 and KRAS dependent H441 and H358 cell lines which are cultured overnight in a 10% FBS medium, are digested by trypsin to form cell suspensions, which are seeded at a suitable concentration on a 96-well plate with 100 μl/well, cultured in a CO2 incubator for 24 hours until the cells are completely attached, and RA-V (1) with a final concentration of 0, 50, 100, 200 nM is added to react for 24 hours, and then 20 μl of MTT solution (5 mg/ml in PBS, pH=7.4) is added to each well and continue to incubate for 4 hours, stop the culture, and carefully discard the culture supernatant in the wells. Add 150 μl DMSO to each well and shake for 10 minutes to fully dissolve the crystals. Select the wavelength of 490 nm, measure the light absorption value of each well on the enzyme-linked immunosorbent detector, record the results, draw the cell growth curve with time as the abscissa and absorbance value as the ordinate.
# [7] = tested on: KRAS dependent H441 cells; test: MTT assay of cell viability; type: cell-based, human; conditions: H441, 0, 50, 100, 200 nM, 24 hours
# Experimental: as §4
# [8] = tested on: KRAS dependent H358 cells; test: PI/Annexin V double staining, flow cytometry; type: cell-based, human; conditions: H358, 24 hours
# Experimental: (§5) KRAS independent A549 and H460 and KRAS dependent H441 and H358 cell lines which are cultured overnight in a 10% FBS medium, are digested by trypsin to form cell suspensions, which are seeded at a suitable concentration on a 6-well plate, after 24 h, RA-V (1) is added to treat for 24 hours, and are digested by trypsin, and centrifuge at 2000 rpm for 5-10 minutes at room temperature to collect cells; resuspend the cells once with pre-chilled 1×PBS (4° C.), centrifuge at 2000 rpm for 5-10 minutes, and wash the cells; add 300 μL of 1×Binding Buffer to resuspend the cells; add 5 μL of Annexin V-FITC and mix, and incubate for 15 minutes at room temperature away from light; add 5 μL of PI staining 5 minutes before the operation, and detect the cells by the flow cytometry.
# [9] = tested on: KRAS dependent H441 cells; test: PI/Annexin V double staining, flow cytometry; type: cell-based, human; conditions: H441, 24 hours
# Experimental: as §5
# [10] = tested on: KRAS independent A549 cells; test: PI/Annexin V double staining, flow cytometry; type: cell-based, human; conditions: A549, 24 hours
# Experimental: as §5
# [11] = tested on: KRAS independent H460 cells; test: PI/Annexin V double staining, flow cytometry; type: cell-based, human; conditions: H460, 24 hours
# Experimental: as §5
# H358 cells = test: Western blot of Capsase3, BCL-2 and BCL-XL; type: cell-based, human
# [12] = tested on: KRAS dependent H358 cells; test: GFP-LC3 transfection, autophagosome formation by fluorescence microscope; type: cell-based, human; conditions: H358, 24 hours
# Experimental: (§6) KRAS dependent H441 and H358 cells which are cultured overnight in a 10% FBS medium are seeded in a 24-well plate at an appropriate density and transfected with the GFP-LC3 plasmid, after 24 hours, RA-V (1) is added to react for 24 hours, and the localization of GFP-LC3 is observed with a fluorescence microscope, and the number of autophagy cells is calculated quantitatively.
# [13] = tested on: KRAS dependent H441 cells; test: as above; type: cell-based, human; conditions: H441, 24 hours
# Experimental: as §6
# H441 cells = test: Western blot of Capsase3, BCL-2 and BCL-XL; type: cell-based, human
SMILES,"cell apoptosis by expression of Capsase3, BCL-2 and BCL-XL (H460 cells)","cell apoptosis by expression of Capsase3, BCL-2 and BCL-XL (A549 cells)","tumor inhibition rate ([1]; HCT116, high dosage)","tumor inhibition rate ([1]; HCT116, medium dosage)","expression levels of LC3-II, Atg7 and Beclin1 [2]","expression levels of LC3-II, Atg7 and Beclin1 [3]",anti-tumor effect [4],tumor inhibition rate [5],cell survival (MTT) [6],cell survival (MTT) [7],cell apoptosis (PI/Annexin V) [8],cell apoptosis (PI/Annexin V) [9],cell apoptosis (PI/Annexin V) [10],cell apoptosis (PI/Annexin V) [11],"cell apoptosis by expression of Capsase3, BCL-2 and BCL-XL (H358 cells)",GFP-LC3 of treated cells compared with the blank group [12],GFP-LC3 of treated cells compared with the blank group [13],"cell apoptosis by expression of Capsase3, BCL-2 and BCL-XL (H441 cells)"
"COc1ccc(C[C@H]2C(=O)N[C@@H](C)C(=O)N(C)C3Cc4ccc(cc4)Oc4cc(ccc4O)C[C@@H](C(=O)N[C@H](C)C(=O)N[C@@H](C)C(=O)N2C)N(C)C3=O)cc1 [RA-V (1), RA-V]",no significant effect,no significant effect,66.67%,41.67%,decrease with the increase of the concentration,decrease with the increase of the concentration,not effective,50.4%,inhibits the survival,inhibits the survival,significantly induces the cell apoptosis,significantly induces the cell apoptosis,no significant effect,no significant effect,significantly induces the cell apoptosis,significantly reduce,significantly reduce,significantly induces the cell apoptosis
"COc1ccc(C[C@H]2C(=O)N[C@@H](C)C(=O)N(C)C3Cc4ccc(cc4)Oc4cc(ccc4O[C@@H]4OC(CO)[C@@H](O)[C@H](O)C4O)C[C@@H](C(=O)N[C@H](C)C(=O)N[C@@H](C)C(=O)N2C)N(C)C3=O)cc1 (some centres unmarked) [RA-XII (2), RA-XII]",,,79.92%,68.47%,,,,,,,,,,,,,,
